In ChEMBL document CHEMBL3351465, “Discovery of functionalized bisimidazoles bearing cyclic aliphatic-phenyl motifs as HCV NS5A inhibitors” (Bioorg Med Chem Lett, 2014):
Converted amounts (≈) assume the structure as drawn.

Key:
[1] = Cmax in Sprague-Dawley rat at 10 mg/kg, po; format: ADME, organism-based; set-up: dose 10 mg/kg, route oral; conditions: in vivo
[2] = Oral bioavailability in Sprague-Dawley rat at 10 mg/kg; format: ADME, organism-based; conditions: in vivo
[3] = Inhibition of NS5A in HCV genotype-1a infected in human HuH7 cells by luciferase reporter gene assay; format: cell-based, Hepatitis C virus subtype 1a; conditions: Hepatitis C virus, Huh-7
[4] = Inhibition of NS5A in HCV genotype-1b infected in human HuH7 cells by luciferase reporter gene assay; format: cell-based, Hepatitis C virus subtype 1b; conditions: Hepatitis C virus, Huh-7
[5] = Volume of distribution at steady state in Sprague-Dawley rat at 2 mg/kg, iv; format: ADME, organism-based; set-up: dose 2 mg/kg, route intravenous; conditions: in vivo, read-out: Vdss
[6] = Tmax in Sprague-Dawley rat at 10 mg/kg, po; format: ADME, organism-based; set-up: dose 10 mg/kg, route oral; conditions: in vivo
[7] = Drug uptake in Sprague-Dawley rat liver at 10 mg/kg, po after 4 hrs; format: ADME, organism-based; set-up: dose 10 mg/kg, route oral; conditions: read-out: Drug uptake
[8] = Clearance in Sprague-Dawley rat at 2 mg/kg, iv; format: ADME, organism-based; set-up: dose 2 mg/kg, route intravenous; conditions: in vivo
[9] = AUClast in Sprague-Dawley rat at 10 mg/kg, po; format: ADME, organism-based; set-up: time 0 - last, dose 10 mg/kg, route oral; conditions: plasma
[10] = Half life in Sprague-Dawley rat at 2 mg/kg, iv; format: ADME, organism-based; set-up: dose 2 mg/kg, route intravenous; conditions: in vivo
[11] = Plasma concentration in Sprague-Dawley rat at 10 mg/kg, po after 4 hrs; format: ADME, organism-based; set-up: dose 10 mg/kg, route oral
[12] = AUClast in Sprague-Dawley rat at 2 mg/kg, iv; format: ADME, organism-based; set-up: time 0 - last, dose 2 mg/kg, route intravenous; conditions: plasma
[13] = Solubility of the compound at pH 7.4 by UV detection method; format: physicochemical; conditions: buffer
[14] = Half life in Sprague-Dawley rat at 1 mg/kg, iv; format: ADME, organism-based; set-up: dose 1 mg/kg, route intravenous; conditions: in vivo
[15] = AUClast in Sprague-Dawley rat at 5 mg/kg, po; format: ADME, organism-based; set-up: time 0 - last, dose 5 mg/kg, route oral; conditions: plasma
[16] = Oral bioavailability in Sprague-Dawley rat at 5 mg/kg; format: ADME, organism-based; conditions: in vivo
[17] = Tmax in Sprague-Dawley rat at 5 mg/kg, po; format: ADME, organism-based; set-up: dose 5 mg/kg, route oral; conditions: in vivo
[18] = Volume of distribution at steady state in Sprague-Dawley rat at 1 mg/kg, iv; format: ADME, organism-based; set-up: dose 1 mg/kg, route intravenous; conditions: in vivo, read-out: Vdss
[19] = Clearance in Sprague-Dawley rat at 1 mg/kg, iv; format: ADME, organism-based; set-up: dose 1 mg/kg, route intravenous; conditions: in vivo
[20] = Plasma concentration in Sprague-Dawley rat […] at 5 mg/kg, po after 4 hrs; format: ADME, organism-based; set-up: dose 5 mg/kg, route oral
[21] = Drug uptake in Sprague-Dawley rat liver at 5 mg/kg, po after 4 hrs; format: ADME, organism-based; set-up: dose 5 mg/kg, route oral; conditions: read-out: Drug uptake
[22] = AUClast in Sprague-Dawley rat at 1 mg/kg, iv; format: ADME, organism-based; set-up: time 0 - last, dose 1 mg/kg, route intravenous; conditions: plasma
[23] = Cmax in Sprague-Dawley rat at 5 mg/kg, po; format: ADME, organism-based; set-up: dose 5 mg/kg, route oral; conditions: in vivo

| Compound | EC50 [3] | EC50 [4] | other results |
| --- | --- | --- | --- |
| COC(=O)N[C@@H](C(=O)N1CCC[C@H]1c1ncc(-c2ccc(N3CCC(c4cnc([C@@H]5CCCN5C(=O)[C@H](NC(=O)OC)c5ccccc5)[nH]4)CC3)c(F)c2)[nH]1)c1ccccc1 | 38000 pM | 95 pM | Cmax [1]: 41.5 ng/mL; bioavailability [2]: 1.2%; Vd [5]: 1.39 L/kg; Tmax [6]: 0.67 h; concentration at 4 h [7]: 4 ng/mL; clearance [8]: 17.7 mL/min/kg; AUC(0-t) [9]: 109 ng·h/mL; half-life [10]: 1.9 h; concentration at 4 h [11]: 8.4 ng/mL; AUC(0-t) [12]: 2060 ng·h/mL |
| COC(=O)N[C@@H](C(=O)N1CCC[C@H]1c1ncc(-c2cc(F)c(N3CCC(c4cnc([C@@H]5CCCN5C(=O)[C@H](NC(=O)OC)c5ccccc5)[nH]4)CC3)c(F)c2)[nH]1)c1ccccc1 | 14000 pM | 33 pM |  |
| COC(=O)N[C@H](C(=O)N1CCC[C@H]1c1ncc(-c2cc(F)c(N3CCC(c4cnc([C@@H]5CCCN5C(=O)[C@@H](NC(=O)OC)C(C)C)[nH]4)CC3)c(F)c2)[nH]1)C(C)C | 3800 pM | 54 pM | solubility [13]: 87.5 µg/mL (≈ 112 µM) |
| COC(=O)N[C@@H](C(=O)N1CCC[C@H]1c1ncc(-c2cc(F)c(N3CCC(c4cnc([C@@H]5CCCN5C(=O)[C@H](NC(=O)OC)C(C)C)[nH]4)CC3)c(F)c2)[nH]1)C(C)C | > 100000 pM | > 3700 pM |  |
| COC(=O)N[C@H](C(=O)N1CCC[C@H]1c1ncc(-c2cc(F)c(N3CCC(C)(c4cnc([C@@H]5CCCN5C(=O)[C@@H](NC(=O)OC)C(C)C)[nH]4)CC3)c(F)c2)[nH]1)C(C)C | > 100000 pM | 81 pM |  |
| COC(=O)N[C@@H](C(=O)N1CCC[C@H]1c1ncc(-c2ccc([C@H]3CC[C@H](c4cnc([C@@H]5CCCN5C(=O)[C@H](NC(=O)OC)c5ccccc5)[nH]4)CC3)cc2)[nH]1)c1ccccc1 | 5200 pM | 61 pM |  |
| COC(=O)N[C@H](C(=O)N1CCC[C@H]1c1ncc(-c2ccc([C@H]3CC[C@H](c4cnc([C@@H]5CCCN5C(=O)[C@@H](NC(=O)OC)C(C)C)[nH]4)CC3)cc2)[nH]1)C(C)C | 2000 pM | 50 pM | half-life [14]: 1.33 h; AUC(0-t) [15]: 1540 ng·h/mL; bioavailability [16]: 44.2%; Tmax [17]: 0.67 h; Vd [18]: 1.53 L/kg; clearance [19]: 23.7 mL/min/kg; solubility [13]: 66.3 µg/mL (≈ 89 µM); concentration at 4 h [20]: 108 ng/mL; concentration at 4 h [21]: 665 ng/mL; AUC(0-t) [22]: 706 ng·h/mL; Cmax [23]: 554 ng/mL |
| COC(=O)N[C@H](C(=O)N1CCC[C@H]1c1ncc(-c2ccc([C@H]3CC[C@](C)(c4cnc([C@@H]5CCCN5C(=O)[C@@H](NC(=O)OC)C(C)C)[nH]4)CC3)cc2)[nH]1)C(C)C | > 100000 pM | 1300 pM |  |
| COC(=O)N[C@H](C(=O)N1CCC[C@H]1c1ncc(-c2cc(F)c(N3CCC(c4cnc([C@@H]5CCCCN5C(=O)[C@@H](NC(=O)OC)C(C)C)[nH]4)CC3)c(F)c2)[nH]1)C(C)C | 34000 pM | 90 pM |  |
| COC(=O)N[C@@H](C(=O)N1CCC[C@H]1c1ncc(-c2cc(F)c(N3CCC(c4cnc([C@@H]5COCCN5C(=O)[C@H](NC(=O)OC)c5ccccc5)[nH]4)CC3)c(F)c2)[nH]1)c1ccccc1 | 38000 pM | 50 pM |  |
| COC(=O)N[C@H](C(=O)N(C)[C@@H](C)c1ncc(C2CCN(c3c(F)cc(-c4cnc([C@@H]5CCCN5C(=O)[C@@H](NC(=O)OC)C(C)C)[nH]4)cc3F)CC2)[nH]1)C(C)C | > 100000 pM | 540 pM |  |
| COC(=O)N[C@H](C(=O)N[C@@H](C)c1ncc(C2CCN(c3c(F)cc(-c4cnc([C@@H]5CCCN5C(=O)[C@@H](NC(=O)OC)C(C)C)[nH]4)cc3F)CC2)[nH]1)C(C)C | 68000 pM | 140 pM |  |
| COC(=O)N[C@H](C(=O)N[C@H](c1ncc(C2CCN(c3c(F)cc(-c4cnc([C@@H]5CCCN5C(=O)[C@@H](NC(=O)OC)C(C)C)[nH]4)cc3F)CC2)[nH]1)C(C)C)C(C)C | 25000 pM | 70 pM |  |
| COC(=O)N[C@H](C(=O)N[C@@H](C)c1ncc(-c2cc(F)c(N3CCC(c4cnc([C@@H]5CCCN5C(=O)[C@@H](NC(=O)OC)C(C)C)[nH]4)CC3)c(F)c2)[nH]1)C(C)C | 39000 pM | 270 pM |  |
| COC(=O)N[C@@H](C(=O)N1CCOC[C@H]1c1ncc(-c2cc(F)c(N3CCC(c4cnc([C@@H]5CCCN5C(=O)[C@H](NC(=O)OC)c5ccccc5)[nH]4)CC3)c(F)c2)[nH]1)c1ccccc1 | 73000 pM | 40 pM |  |
| COC(=O)N[C@@H](C)C(=O)N1CCC[C@H]1c1ncc(-c2ccc([C@H]3CC[C@H](c4cnc([C@@H]5CCCN5C(=O)[C@H](C)NC(=O)OC)[nH]4)CC3)cc2)[nH]1 | 7200 pM | 330 pM |  |
| COC(=O)N[C@H](C(=O)N1CCC[C@H]1c1ncc(-c2ccc([C@H]3CC[C@H](c4cnc([C@@H]5CCCN5C(=O)[C@@H](NC(=O)OC)C5CC5)[nH]4)CC3)cc2)[nH]1)C1CC1 | 4500 pM | 860 pM |  |
| CC[C@H](C)[C@H](NC(=O)OC)C(=O)N1CCC[C@H]1c1ncc(-c2ccc([C@H]3CC[C@H](c4cnc([C@@H]5CCCN5C(=O)[C@@H](NC(=O)OC)[C@@H](C)CC)[nH]4)CC3)cc2)[nH]1 | 4100 pM | 50 pM |  |
| COC(=O)N[C@H](C(=O)N1CCC[C@H]1c1ncc(-c2ccc([C@H]3CC[C@H](c4cnc([C@@H]5CCCN5C(=O)[C@@H](NC(=O)OC)[C@@H](C)OC)[nH]4)CC3)cc2)[nH]1)[C@@H](C)OC | 1400 pM | 190 pM |  |
| COC(=O)N[C@H](C(=O)N1CCC[C@H]1c1ncc(-c2ccc([C@H]3CC[C@H](c4cnc([C@@H]5CCCN5C(=O)[C@@H](c5ccccc5)N(C)C)[nH]4)CC3)cc2)[nH]1)C(C)C | 1700 pM | 140 pM |  |
| COC(=O)N[C@@H](C(=O)N1CCC[C@H]1c1ncc(-c2ccc([C@H]3CC[C@H](c4cnc([C@@H]5CCCN5C(=O)[C@@H](c5ccccc5)N(C)C)[nH]4)CC3)cc2)[nH]1)c1ccccc1 | 1400 pM | 110 pM | Cmax [1]: 54.1 ng/mL; Tmax [6]: 1.67 h; AUC(0-t) [9]: 255 ng·h/mL |
| COC(=O)N[C@H](C(=O)N1CCC[C@H]1c1ncc(-c2ccc([C@H]3CC[C@H](c4cnc([C@@H]5CCCN5C(=O)[C@H](C(C)C)N(C)C)[nH]4)CC3)cc2)[nH]1)C(C)C | > 100000 pM | 700 pM |  |
| COC(=O)N[C@H](C(=O)N1CCC[C@H]1c1ncc(-c2ccc([C@H]3CC[C@H](c4cnc([C@@H]5CCCN5C(=O)[C@H](NC(=O)OC)c5ccccc5)[nH]4)CC3)cc2)[nH]1)C(C)C | 2600 pM | 50 pM |  |
| COC(=O)N[C@H](C(=O)N1CCC[C@H]1c1ncc([C@H]2CC[C@H](c3ccc(-c4cnc([C@@H]5CCCN5C(=O)[C@H](NC(=O)OC)c5ccccc5)[nH]4)cc3)CC2)[nH]1)C(C)C | 4400 pM | 88 pM |  |
| COC(=O)N[C@H](C(=O)N1CCC[C@H]1c1ncc(-c2ccc(-c3ccc(-c4cnc([C@@H]5CCCN5C(=O)[C@@H](NC(=O)OC)C(C)C)[nH]4)cc3)cc2)[nH]1)C(C)C [DACLATASVIR] | 140 pM | 23 pM | solubility [13]: 6.8 µg/mL (≈ 9.2 µM) |
